{"source": "paper PMC2131780", "about": "“A Tale of Switched Functions: From Cyclooxygenase Inhibition to M-Channel Modulation in New Diphenylamine Derivatives” (PLoS ONE, 2007)", "key": {"rat hippocampal neurons": {"system": "rat hippocampal neurons", "experiment": "Current-clamp recording of cultured hippocampal neurons", "format": "cell-based", "protocol": "For hippocampal neuronal cultures, Sprague-Dawley rat embryos (E18) were removed by caesarian section and their hippocampi were dissected out. The tissue was digested with papain for 20 min, triturated to a single-cell suspension, and plated at a density of 40,000 cells per ml on a substrate of bovine collagen type IV and 100 µg/ml poly-L-lysine in 13 mm diameter glass coverslips of a 24-multiwell plate. The culture medium consisted of Modified Eagle's Medium containing 5% horse serum (Biological Industries, Beit HaEmek, Israel), B-27 neuronal supplement (Invitrogen, Carlsbad, CA), 100 U/ml penicillin, 100 µg/ml streptomycin, and 2 mM glutamine. D-glucose was supplemented to a final concentration of 6 g/l. Cytosine-1-D-arabinofuranoside (5 µM) was added after 5 days to arrest glial cell proliferation. For electrophysiological recordings hippocampal neurons were used at 10–14 days in culture. All cultures were maintained at 37°C in humidified air containing 5% CO2.\nFor current-clamp recordings in primary cultured neurons, the patch pipettes were filled with (in mM): 135 KCl, 1 K2ATP, 1 MgATP, 2 EGTA, 1.1 CaCl2, 5 glucose, 10 HEPES, adjusted with KOH at pH 7.4 (315 mOsm). […] A liquid junction potential of about −15.6 mV was measured between the intracellular and saline solutions and corrected on-line. […]"}, "[1]": {"system": "primary hippocampal neurons (glutamate and GABA release)", "experiment": "Spontaneous and miniature post-synaptic currents in cultured hippocampal neurons", "format": "cell-based, rat", "protocol": "Because of their slow activation and their lack of inactivation, M-channels could modulate neuronal activity during repetitive spike discharge and tune neurotransmitter release. Figure 8 illustrates the effect of compound 15 on synaptic transmission and transmitter release. Spontaneous excitatory and inhibitory post-synaptic currents (sEPSCs and sIPSCs) were recorded from dense cultures of primary hippocampal neurons, using the voltage-clamp configuration of the whole-cell patch-clamp technique. […] Spontaneous EPSCs were recorded at −70 mV and were pharmacologically isolated by blocking GABAA receptor-mediated inhibitory post-synaptic currents (with 10 µM bicuculline and 30 µM picrotoxin). The sEPSCs were […] mediated by the activation of AMPA receptors and to a lesser extent of NMDA receptors, as they were blocked by 10 µM NBQX and 10 µM AP-5. Thus, sEPSCs reflect the synaptic release of glutamate. Under control conditions, sEPSCs appeared as repetitive bursts whose frequency was variable, ranging from 0.3 to 2 Hz and increasing with the density of the hippocampal culture. […] Consequently, compound 15 reduced by about 50% the total charge transfer as well as the charge transfer within the bursts (Figure 8D–F).\nFor hippocampal neuronal cultures, Sprague-Dawley rat embryos (E18) were removed by caesarian section and their hippocampi were dissected out. […]\nSpontaneous excitatory postsynaptic currents (EPSCs) were recorded in the voltage-clamp configuration of the whole-cell patch-clamp technique at a holding potential of −70 mV as previously described; the extracellular solution contained (in mM) 160 NaCl, 2.5 KCl, 10 HEPES, 10 glucose, 2 CaCl2; pH 7.3 (325 mOsm), to which 30 µM picrotoxin and 10 µM bicuculline methyl iodide were added. […] Spontaneous inhibitory postsynaptic currents (IPSCs) were recorded at a holding potential of −70 mV; the extracellular solution contained (in mM) 160 NaCl, 2.5 KCl, 10 HEPES, 10 glucose, 2 CaCl2; pH 7.3 (325 mOsm), to which 10 µM NBQX and 10 µM AP-5 were added. […]"}, "[2]": {"system": "MES-induced tonic hind limb extension", "experiment": "Maximal electroshock seizure (MES) model", "format": "in vivo, mouse", "conditions": "Mus musculus, ip; mice, intraperitoneal, 30 min before electroshock (0.2 sec, 50 mA); read-out: ED50, protection against tonic extension caused by MES", "protocol": "This test is generally thought to be a model of generalized tonic-clonic seizure in human.\nThe anti-convulsant effect was measured by the maximal electroshock seizure model (MES) in ICR mice as previously described. The procedures followed for experimentation and maintenance of the animals were approved by the animal research ethics committee of Tel Aviv University and in accordance with the Guide for the Care and Use of Laboratory Animals (1996, National Academy of Sciences, Washington DC). Briefly, maximal electroshock was induced in adult mice by means of two transcorneal electrodes delivering an alternative current of 50 mA at 60 Hz for 0.2 sec using rodent shocker (Hugo Sachs Electronik, type 221). […] The drugs dissolved in 0.9% saline were administered intraperitoneally 30 min before the electroshock was performed. Animals failing to show tonic hind limb extension were scored as protected and were expressed in percentage."}}, "data": [{"smiles": "O=C(Cc1cc([N+](=O)[O-])ccc1Nc1c(Cl)cccc1Cl)OCCO", "note": "[Compound 15]", "values": [{"measurement": "number of evoked action potentials, hippocampal neurons", "setting": "rat hippocampal neurons; 25 µM, 75–200 pA for 400 ms", "value": "2.1±0.5"}, {"measurement": "hyperpolarization of hippocampal neurons", "setting": "rat hippocampal neurons; exposed to compound", "value": "−8.5", "unit": "mV"}, {"measurement": "reduction of sEPSCs total charge transfer and charge transfer within bursts", "setting": "[1]; 25 µM, holding −70 mV", "value": "about 50%"}, {"measurement": "inhibition at 25 µM", "setting": "[1]; Rattus norvegicus, Hippocampal neuron, 25 µM, holding −70 mV, read-out: inhibition of sIPSCs frequency of spontaneous occurrence", "value": "> 98", "unit": "%"}, {"measurement": "effect on amplitude and kinetics of miniature EPSCs and IPSCs", "setting": "[1]; not shown", "value": "did not affect"}, {"measurement": "ED50", "setting": "[2]", "value": 12, "unit": "mg/kg"}]}]}
